Converted amounts (≈) assume the structure as drawn.
Experiments:
PC-3 = experiment: MTT solid tumor cell proliferation inhibition, PC-3; assay type: cell-based, human; details: Homo sapiens
Protocol: (§1) Human solid tumor cell lines: Hep-2 (laryngeal carcinoma), A549 (human lung cancer), CaES-17 (esophageal cancer cell), PC-3 (prostate cancer), CNE (nasopharyngeal carcinoma cell), and SK-OV-3 (ovarian cancer cell), all of which are purchased from China Center For Type Culture Collection; RKO (human colon adenocarcinoma cell), MGC 803 (human gastric cancer cell), MG63 (osteosarcoma) and U87 MG (malignant glioma cell), all of which are purchased from Fuxiang Bio-tech Co. Ltd., Shanghai, China; PANC-1 (pancreatic cancer), Hep G2 (human liver cancer cell), Becap37 (human breast cancer cell), and Hela (human cervical cancer cell), all of which are donated by Cancer Research Institute of Zhejiang University, China.
(§2) Obtaining 4000 well-growing human solid tumor cells and inoculating them into wells of a 96-well cell culture plate. The culture medium is DMEM High Glucose cell culture medium containing 10% fetal bovine serum. The plate is placed in a carbon dioxide cell incubator (5% CO2) at 37° C. for 24 hours for incubation. After being added with the amidated oleanolic acid derivatives of different concentrations and mixed uniformly, the plate is placed in a carbon dioxide cell incubator (5% CO2) at 37° C. for 72 hours for incubation. Then the relative number of the living cells is determined by the MTT method. In this experiment, the cell proliferation inhibition rate in control group (not treated with any compound) is set as 0%.

RKO = experiment: MTT solid tumor cell proliferation inhibition, RKO; assay type: cell-based; details: Homo sapiens, 72 h
Protocol: as §1, §2

CaES-17 = experiment: MTT solid tumor cell proliferation inhibition, CaES-17; assay type: cell-based, human
Protocol: as §1, §2

K562/adr = experiment: MTT leukemia cell proliferation inhibition, K562/adr; assay type: cell-based; details: Homo sapiens, 72 h
Source text: (§3) Leukemia cell lines: leukemia cell lines: K562/adr (drug-resistant, chronic myeloid leukemia, CML), NB4 (acute promyelocytic leukemia, AML), Kasumi-1 (acute myeloid leukemia M2 type, AML-M2), Jurkat (acute lymphoblastic leukemia, ALL), all of which are donated by Cancer Research Institute of Zhejiang University, China; and H9 (acute lymphoblastic leukemia, ALL), which is purchased from China Center for Type Culture Collection (CCTCC).
(§4) Reagents: The standard sample of oleanolic acid (OA) is purchased from Hua Kang Pharmaceutical Raw Material Factory, Shifang City, Sichuan, China; and the amidated oleanolic acid derivatives are prepared according to the present invention.
(§5) Obtaining 6000 well-growing leukemia cells and inoculating them into wells of a 96-well cell culture plate. The culture medium is the 1640 cell culture medium containing 10% fetal bovine serum. After adding the amidated oleanolic acid derivatives of different concentrations and mixing uniformly, placing the plate in a carbon dioxide cell incubator (5% CO2) at 37° C. and incubated for 72 hours. Then the relative number of viable cells is determined by the MTT method. In this experiment, the cell proliferation inhibition rate in control group (not treated with any compound) is set as 0%.

Kasumi-1 = experiment: MTT leukemia cell proliferation inhibition, Kasumi-1; assay type: cell-based; details: Homo sapiens
Source text: as §3, §4, §5

RPMI8226 = experiment: MTT multiple myeloma cell proliferation inhibition, RPMI8226; assay type: cell-based; details: Homo sapiens, RPMI-8226
Protocol: Multiple myeloma cell lines: RPMI8226 (multiple myeloma), purchased from Fuxiang Bio-tech Co. Ltd., Shanghai, China.
as §5

Becap37 = experiment: MTT solid tumor cell proliferation inhibition, Becap37; assay type: cell-based; details: Homo sapiens
Protocol: as §1, §2

MG 63 = experiment: MTT solid tumor cell proliferation inhibition, MG 63; assay type: cell-based, human
Protocol: as §1, §2

A549 = experiment: MTT solid tumor cell proliferation inhibition, A549; assay type: cell-based, human
Protocol: as §1, §2

H9 = experiment: MTT leukemia cell proliferation inhibition, H9; assay type: cell-based, human; details: Homo sapiens
Source text: as §3, §4, §5

MGC803 = experiment: MTT solid tumor cell proliferation inhibition, MGC803; assay type: cell-based, human; details: Homo sapiens, MGC-803
Protocol: as §1, §2

U87 MG = experiment: MTT solid tumor cell proliferation inhibition, U87 MG; assay type: cell-based, human
Protocol: as §1, §2

Jurkat = experiment: MTT leukemia cell proliferation inhibition, Jurkat; assay type: cell-based; details: Homo sapiens, 72 h
Source text: as §3, §4, §5

Hela = experiment: MTT solid tumor cell proliferation inhibition, Hela; assay type: cell-based, human; details: Homo sapiens, Hela, 72 h
Protocol: as §1, §2

NB4 = experiment: MTT leukemia cell proliferation inhibition, NB4; assay type: cell-based; details: Homo sapiens, NB-4
Source text: as §3, §4, §5

Hep-2 = experiment: MTT solid tumor cell proliferation inhibition, Hep-2; assay type: cell-based, human
Protocol: as §1, §2

CNE = experiment: MTT solid tumor cell proliferation inhibition, CNE; assay type: cell-based, human; details: Homo sapiens, CNE, 72 h
Protocol: as §1, §2

Hep G2 = experiment: MTT solid tumor cell proliferation inhibition, Hep G2; assay type: cell-based; details: Homo sapiens, HepG2
Protocol: as §1, §2

PANC-1 = experiment: MTT solid tumor cell proliferation inhibition, PANC-1; assay type: cell-based, human; details: Homo sapiens
Protocol: as §1, §2

SK-OV-3 = experiment: MTT solid tumor cell proliferation inhibition, SK-OV-3; assay type: cell-based, human; details: Homo sapiens
Protocol: as §1, §2

[1] = 16 μg/mL compound, read-out: IR (inhibition rate)

IC50 (PC-3; PC-3, 72 h, MTT): 19.5 µg/mL (≈ 37.4 µM) | IC50 (RKO; MTT): 14.3 µg/mL (≈ 27.4 µM) | IC50 (CaES-17; Homo sapiens, CaEs17, CaES-17, 72 h, MTT): 12.4 µg/mL (≈ 23.8 µM) | IC50 (K562/adr; MTT): 5.26 µg/mL (≈ 10.1 µM) | IC50 (Kasumi-1; Kasumi-1, 72 h, MTT): 13.1 µg/mL (≈ 25.1 µM) | IC50 (RPMI8226; RPMI8226, 72 h, MTT): 5.79 µg/mL (≈ 11.1 µM) | IC50 (Becap37; Becap37, 72 h, MTT): > 16 µg/mL | IC50 (MG 63; Homo sapiens, MG 63, 72 h, MTT): 15.1 µg/mL (≈ 29 µM) | IC50 (A549; Homo sapiens, A549, 72 h, MTT): 15 µg/mL (≈ 28.7 µM) | IC50 (H9; H9, 72 h, MTT): 14 µg/mL (≈ 26.8 µM) | IC50 (MGC803; MGC803, 72 h, MTT): 16 µg/mL (≈ 30.7 µM) | IC50 (U87 MG; Homo sapiens, U-87 MG, U87 MG, 72 h, MTT): 16 µg/mL (≈ 30.7 µM) | IC50 (Jurkat; MTT): 14.5 µg/mL (≈ 27.8 µM) | IC50 (Hela; MTT): 12.6 µg/mL (≈ 24.1 µM) | IC50 (NB4; NB4, 72 h, MTT): 9.17 µg/mL (≈ 17.6 µM) | IC50 (Hep-2; Homo sapiens, Hep-2, 72 h, MTT): > 16 µg/mL | IC50 (CNE; MTT): > 16 µg/mL | IC50 (Hep G2; Hep G2, 72 h, MTT): > 16 µg/mL | IC50 (PANC-1; PANC-1, 72 h, MTT): > 16 µg/mL | IC50 (SK-OV-3; SK-OV-3, 72 h, MTT): > 16 µg/mL
Structure (SMILES): CC1(C)CC[C@]2(NC(=O)c3ccco3)CC[C@]3(C)C(=CC[C@@H]4[C@@]5(C)CC[C@H](O)C(C)(C)[C@@H]5CC[C@]43C)[C@@H]2C1 [BS-OA-099]
inhibition at 16 µg/mL (PC-3; PC-3, 16 μg/mL compound, 72 h, read-out: IR (inhibition rate)): 47.2% | inhibition at 16 µg/mL (RKO; [1]): 63.1% | improvement of cell inhibition rate as compared with oleanolic acid (CaES-17; CaES-17 cells): more than 2 fold | inhibition at 16 µg/mL (CaES-17; Homo sapiens, CaEs17, CaES-17, 16 μg/mL compound, 72 h, read-out: IR (inhibition rate)): 66.6% | inhibition at 16 µg/mL (K562/adr; [1]): 97.1% | inhibition at 16 µg/mL (Kasumi-1; Kasumi-1, 16 μg/mL compound, 72 h, read-out: IR (inhibition rate)): 69.1% | inhibition at 16 µg/mL (RPMI8226; RPMI8226, 16 μg/mL compound, 72 h, read-out: IR (inhibition rate)): 98.9% | inhibition at 16 µg/mL (Becap37; Becap37, 16 μg/mL compound, 72 h, read-out: IR (inhibition rate)): 35.1% | IR (inhibition rate) (MG 63; MG 63, 16 μg/mL compound, 72 h): 58.9% | improvement of cell inhibition rate as compared with oleanolic acid (A549; A549 cells): more than 4 fold | inhibition at 16 µg/mL (A549; Homo sapiens, A549, 16 μg/mL compound, 72 h, read-out: IR (inhibition rate)): 75% | inhibition at 16 µg/mL (H9; H9, 16 μg/mL compound, 72 h, read-out: IR (inhibition rate)): 59.8% | inhibition at 16 µg/mL (MGC803; MGC803, 16 μg/mL compound, 72 h, read-out: IR (inhibition rate)): 50% | inhibition at 16 µg/mL (U87 MG; Homo sapiens, U-87 MG, U87 MG, 16 μg/mL compound, 72 h, read-out: IR (inhibition rate)): 47.9% | improvement of cell inhibition rate as compared with oleanolic acid (U87 MG; U87 MG cells): more than 2 fold | inhibition at 16 µg/mL (Jurkat; [1]): 63.6% | inhibition at 16 µg/mL (Hela; [1]): 72.9% | inhibition at 16 µg/mL (NB4; NB4, 16 μg/mL compound, 72 h, read-out: IR (inhibition rate)): 100% | improvement of cell inhibition rate as compared with oleanolic acid (Hep-2; Hep-2 cells): more than 3 fold | inhibition at 16 µg/mL (Hep-2; Homo sapiens, Hep-2, 16 μg/mL compound, 72 h, read-out: IR (inhibition rate)): 37.3% | inhibition at 16 µg/mL (CNE; [1]): 42.4% | inhibition at 16 µg/mL (Hep G2; Hep G2, 16 μg/mL compound, 72 h, read-out: IR (inhibition rate)): 25.3% | inhibition at 16 µg/mL (PANC-1; PANC-1, 16 μg/mL compound, 72 h, read-out: IR (inhibition rate)): 34.3% | inhibition at 16 µg/mL (SK-OV-3; SK-OV-3, 16 μg/mL compound, 72 h, read-out: IR (inhibition rate)): 43.2%
